Source: US20030199671A1, “Binding molecules for Fc-region polypeptides” (priority 2001, published 2003)
Positions of bridges follow the written chain, without caps; N, C: chain ends. Residues, ends and D or L forms follow the SMILES beside them. *: point of attachment. 5FAM = O=C1OC2(c3ccc(O)cc3Oc3cc(O)ccc32)c2ccc(C(=O)*)cc21

How the values were obtained:
[1] = biological target: IgG3 (Homo sapiens, UniProt P01860); assay type: binding; design: all human subtypes derived from myeloma patients; purchased Calbiochem 400124; host or cells: myeloma patients; conditions: peptide immobilized on NHS activated sepharose 4 fast flow, target ligand density 2.0 μmole/ml; batch filterplate; hIgG3
In short: (§1)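 Steps: dilute IgG in PBST or TBST; incubate with immobilized peptide 1-1.5 h, RT; collect unbound by centrifugation; measure A280; wash three times; elute with 0.1 M sodium bicarbonate pH 8.5 and/or 0.1 M sodium citrate pH 4.0 for 30-60 min and quantitate.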

[2] = Solubility in aqueous coupling buffer; assay type: physicochemical; conditions: aqueous coupling conditions
Excerpt: The varying degree of binding may be due to, in part, to lower coupling efficiencies as a result of varying degrees of solubility in aqueous coupling conditions. […] However, coupling efficiencies of all nine DX253 variants monitored by rp-HPLC was high and averaged>85%. Actual ligand densities were not determined.

[3] = biological target: T1, human IgG2 (Homo sapiens, UniProt P01859); assay type: binding; conditions: peptide immobilized on NHS activated sepharose 4 fast flow, target ligand density 2.0 μmole/ml; batch filterplate; hIgG2
T1 construct: all human subtypes derived from myeloma patients; purchased Calbiochem 400122; host or cells: myeloma patients
In short: (§2)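 Read-out is A280 of unbound IgG (1.4 mg/ml extinction coefficient), with percent bound derived against non-filtered or negative controls. Targets were incubated with immobilized peptides in PBST or TBST for 1-1.5 h at room temperature. Hydrolyzed Sepharose and immobilized Protein A serve as negative and positive controls.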

[4] = test system: human IgG; assay type: binding; conditions: batch filterplate; for Batch Binding (% Capture of Total Load) hIgG: peptide immobilized on NHS activated sepharose 4 fast flow, target ligand density 2.0 μmole/ml
In short: as §2

[5] = biological target: T2, human IgG1 (Homo sapiens, UniProt P01857); assay type: binding; conditions: peptide immobilized on NHS activated sepharose 4 fast flow, target ligand density 2.0 μmole/ml; batch filterplate; hIgG1
T2 construct: all human subtypes derived from myeloma patients; purchased Calbiochem 400120; host or cells: myeloma patients
In short: as §1

[6] = biological target: IgG4 (Homo sapiens, UniProt P01861); assay type: binding; design: all human subtypes derived from myeloma patients; purchased Calbiochem 400126; host or cells: myeloma patients; conditions: peptide immobilized on NHS activated sepharose 4 fast flow, target ligand density 2.0 μmole/ml; batch filterplate; hIgG4
In short: as §2

[7] = biological target: T3, human plasma IgG2 (Homo sapiens, UniProt P01859); assay: Fluorescence anisotropy binding, fluorescein-labeled peptide; conditions: 2 nM labeled peptide; PBS with 0.01% Tween 20
T3 construct: the individual human plasma IgG isoforms: IgG1, IgG2, IgG3, or IgG4; purchased Calbiochem; host or cells: human plasma
Description: (§3) All measurements were performed in 384 well microplates with 20 nM fluorescein-labeled peptide and various concentrations of the IgG isoform in a volume of between 10 and 20 μl using a Tecan Polarion fluorescence polarization plate reader. All binding buffers included 0.01% (v/v) Tween 20 to prevent peptide adsorption to the microplate. The binding mixture was equilibrated for 10 minutes in the microplate at 30° C. prior to performing the measurement.
(§4) Peptides were synthesized, fluorescein-labeled and HPLC purified as described above. Binding studies were performed using either a mixture of human plasma IgG isoforms (the Fc protein) or the individual human plasma IgG isoforms: IgG1, IgG2, IgG3, or IgG4.
(§5) Measurements were performed in 384-well microplates with 2 nM fluorescein-labeled peptide and a varied concentration of the IgG isoform target in a volume of 10 μl using a Tecan Polarion fluorescence polarization plate reader. The Fc binding buffer was 50 mM Tris-HCl, 200 mM NaCl, pH 8.0, 0.01% Tween 20. The IgG binding buffer was PBS with 0.01% Tween 20. The binding mixtures were equilibrated for 10 minutes in the microplate at 30° C. prior to performing the measurements.

[8] = biological target: T4, human plasma IgG1 (Homo sapiens, UniProt P01857); assay: as above; conditions: 2 nM labeled peptide; PBS with 0.01% Tween 20
T4 construct: the individual human plasma IgG isoforms: IgG1, IgG2, IgG3, or IgG4; purchased Calbiochem; host or cells: human plasma
Description: as §3, §4, §5

[9] = biological target: T5, human plasma IgG4 (Homo sapiens, UniProt P01861); assay: as above; conditions: 2 nM labeled peptide; PBS with 0.01% Tween 20
T5 construct: the individual human plasma IgG isoforms: IgG1, IgG2, IgG3, or IgG4; purchased Calbiochem; host or cells: human plasma
Description: (§6) Peptides were synthesized by BACHEM Bioscience, Inc., (King of Prussia, Pa.), fluorescein labeled and purified by HPLC. Binding studies were performed using either a mixture of human plasma IgG isoforms (the Fc target) or the individual human plasma IgG isoforms: IgG1, IgG2, IgG3, or IgG4. All Fc target proteins were obtained from Calbiochem.
as §3, §4, §5

[10] = biological target: Fc (mixture of human plasma IgG isoforms); assay: as above; conditions: 2 nM labeled peptide; 50 mM Tris-HCl, 200 mM NaCl, pH 8.0, 0.01% Tween 20
Description: as §6, §3, §4, §5

Sequence of IgG4 (P01861 1-327 isoform P01861-1): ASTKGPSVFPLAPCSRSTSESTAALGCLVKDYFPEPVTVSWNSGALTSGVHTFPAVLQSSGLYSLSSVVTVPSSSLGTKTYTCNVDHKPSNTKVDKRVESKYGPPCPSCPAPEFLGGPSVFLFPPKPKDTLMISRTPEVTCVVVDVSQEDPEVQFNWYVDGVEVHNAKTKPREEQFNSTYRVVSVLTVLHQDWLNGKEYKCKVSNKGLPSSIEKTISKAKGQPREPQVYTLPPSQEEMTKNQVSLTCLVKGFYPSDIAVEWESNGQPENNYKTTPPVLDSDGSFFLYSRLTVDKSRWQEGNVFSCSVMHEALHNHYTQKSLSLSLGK
T1 sequence (P01859 1-326 isoform P01859-1): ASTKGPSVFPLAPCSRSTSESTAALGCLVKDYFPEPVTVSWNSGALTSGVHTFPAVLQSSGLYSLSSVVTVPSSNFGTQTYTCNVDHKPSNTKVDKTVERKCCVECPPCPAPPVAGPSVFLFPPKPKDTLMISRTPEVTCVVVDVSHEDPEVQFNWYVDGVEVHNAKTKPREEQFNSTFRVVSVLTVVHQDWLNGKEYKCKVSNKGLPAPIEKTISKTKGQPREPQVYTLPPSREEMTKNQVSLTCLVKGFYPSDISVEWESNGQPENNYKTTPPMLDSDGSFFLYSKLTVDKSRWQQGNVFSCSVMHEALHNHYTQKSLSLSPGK
T2 sequence (P01857 1-330 isoform P01857-1): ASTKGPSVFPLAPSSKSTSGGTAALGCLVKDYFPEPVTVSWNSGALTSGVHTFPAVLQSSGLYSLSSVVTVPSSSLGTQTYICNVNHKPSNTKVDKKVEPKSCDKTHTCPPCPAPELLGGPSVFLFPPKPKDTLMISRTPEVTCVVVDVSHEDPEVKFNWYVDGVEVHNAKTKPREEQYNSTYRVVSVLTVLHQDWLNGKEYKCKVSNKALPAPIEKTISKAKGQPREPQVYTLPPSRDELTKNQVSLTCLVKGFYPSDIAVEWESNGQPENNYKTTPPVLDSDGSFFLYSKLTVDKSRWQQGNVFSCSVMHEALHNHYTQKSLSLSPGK
Sequence of IgG3 (P01860 1-377 isoform P01860-1): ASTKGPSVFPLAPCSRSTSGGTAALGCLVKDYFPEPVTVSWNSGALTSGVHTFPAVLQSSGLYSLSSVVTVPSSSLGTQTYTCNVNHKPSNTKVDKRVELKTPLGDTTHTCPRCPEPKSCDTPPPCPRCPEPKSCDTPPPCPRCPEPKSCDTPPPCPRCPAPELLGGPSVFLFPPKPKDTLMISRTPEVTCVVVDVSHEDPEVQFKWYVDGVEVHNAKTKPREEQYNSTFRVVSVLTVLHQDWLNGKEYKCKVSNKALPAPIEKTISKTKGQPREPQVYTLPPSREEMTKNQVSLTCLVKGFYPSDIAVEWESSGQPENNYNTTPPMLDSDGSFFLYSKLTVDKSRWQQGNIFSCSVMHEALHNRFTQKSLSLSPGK
T5 sequence (P01861 1-327 isoform P01861-1): as the sequence (P01861 1-327 isoform P01861-1) above
T3 sequence (P01859 1-326 isoform P01859-1): as the sequence (P01859 1-326 isoform P01859-1) above
T4 sequence (P01857 1-330 isoform P01857-1): as the sequence (P01857 1-330 isoform P01857-1) above

Structure (SMILES) | Batch Binding (% Capture of Total Load) hIgG3 [1] [%] | Solubility in aqueous coupling buffer [2] | Batch Binding (% Capture of Total Load) hIgG2 [3] [%] | Batch Binding (% Capture of Total Load) hIgG [4] [%] | Batch Binding (% Capture of Total Load) hIgG1 [5] [%] | Batch Binding (% Capture of Total Load) hIgG4 [6] [%] | Binding properties / profile relative to parent peptide ([4]; human IgG and subtypes) | KD (μM) IgG2 [7] | KD (μM) IgG1 [8] | KD (μM) IgG4 [9] | KD (μM) Fc [10]
CC(=O)NCC(=O)N[C@H]1CSSC[C@@H](C(=O)N[C@@H](C)C(=O)NCC(=O)N[C@@H](Cc2c[nH]cn2)C(=O)N[C@@H](CCC(=O)O)C(=O)N2CCC[C@H]2C(=O)NCC(=O)N2CCC[C@H]2C(=O)N[C@@H](CCC(=O)O)C(=O)NCC(=O)NCC(=O)NCC(=O)N[C@@H](CCCCN)C(N)=O)NC(=O)[C@H](Cc2c[nH]c3ccccc23)NC(=O)[C@H](C(C)C)NC(=O)[C@H](CC(C)C)NC(=O)[C@H](C)NC(=O)CNC(=O)[C@H](CO)NC(=O)[C@H](Cc2c[nH]c3ccccc23)NC(=O)[C@H](CC(=O)O)NC(=O)[C@H](CCCNC(=N)N)NC(=O)[C@H](CO)NC1=O [DX1146] (Ac-GCSRDWSGALVWCAGHEPGPEGGGK-NH2; disulfide 2-13) | 0 | not fully soluble | 80 | 73 | 83 | 50 | – | – | – | – | –
CC(=O)N[C@@H](CCCNC(=N)N)C(=O)N[C@@H](CCCNC(=N)N)C(=O)N[C@@H](C)C(=O)N[C@H]1CSSC[C@@H](C(=O)N[C@@H](C)C(=O)NCC(=O)N[C@@H](Cc2c[nH]cn2)C(=O)N[C@@H](CCC(=O)O)C(=O)N2CCC[C@H]2C(=O)NCC(=O)N2CCC[C@H]2C(=O)N[C@@H](CCC(=O)O)C(=O)NCC(=O)NCC(=O)NCC(=O)N[C@@H](CCCCN)C(N)=O)NC(=O)[C@H](Cc2c[nH]c3ccccc23)NC(=O)[C@H](C(C)C)NC(=O)[C@H](CC(C)C)NC(=O)[C@H](C)NC(=O)CNC(=O)[C@H](CO)NC(=O)[C@H](Cc2c[nH]c3ccccc23)NC(=O)[C@H](CC(=O)O)NC(=O)[C@H](CCCNC(=N)N)NC(=O)[C@H](CO)NC1=O [DX1140] (Ac-RRACSRDWSGALVWCAGHEPGPEGGGK-NH2; disulfide 4-15) | 0 | not fully soluble | 29 | 40 | 43 | 20 | – | – | – | – | –
CC(=O)N[C@H]1CSSC[C@@H](C(=O)N[C@@H](C)C(=O)NCC(=O)N[C@@H](Cc2c[nH]cn2)C(=O)N[C@@H](CCC(=O)O)C(=O)N2CCC[C@H]2C(=O)NCC(=O)N2CCC[C@H]2C(=O)N[C@@H](CCC(=O)O)C(=O)NCC(=O)NCC(=O)NCC(=O)N[C@@H](CCCCN)C(N)=O)NC(=O)[C@H](Cc2c[nH]c3ccccc23)NC(=O)[C@H](C(C)C)NC(=O)[C@H](CC(C)C)NC(=O)[C@H](C)NC(=O)CNC(=O)[C@H](CO)NC(=O)[C@H](Cc2c[nH]c3ccccc23)NC(=O)[C@H](CC(=O)O)NC(=O)[C@H](CCCNC(=N)N)NC(=O)[C@H](CO)NC1=O [DX1147] (Ac-CSRDWSGALVWCAGHEPGPEGGGK-NH2; disulfide 1-12) | 0 | not fully soluble | 76 | 74 | 83 | 47 | almost identical to those of DX253 | – | – | – | –
CC(=O)N[C@@H](C)C(=O)NCC(=O)N[C@@H](CCCCN)C(=O)N[C@@H](Cc1ccc(O)cc1)C(=O)N[C@@H](Cc1c[nH]c2ccccc12)C(=O)N[C@H]1CSSC[C@@H](C(=O)N[C@@H](CCCCN)C(=O)N[C@H](C(=O)NCC(=O)N[C@H](C(=O)N2CCC[C@H]2C(=O)NCC(=O)N2CCC[C@H]2C(=O)N[C@@H](CCC(=O)O)C(=O)NCC(=O)NCC(=O)NCC(=O)N[C@@H](CCCCNC(=O)c2ccc3c(c2)C(=O)OC32c3ccc(O)cc3Oc3cc(O)ccc32)C(N)=O)[C@@H](C)O)[C@@H](C)O)NC(=O)[C@H](CCC(N)=O)NC(=O)[C@H](CC(C)C)NC(=O)CNC(=O)[C@H](Cc2c[nH]c3ccccc23)NC(=O)[C@H](Cc2ccccc2)NC(=O)[C@H](CO)NC1=O [DX300] (Ac-AGKYWCSFWGLQCKTGTPGPEGGGK(5FAM)-NH2; disulfide 6-13) | – | – | – | – | – | – | – | No binding | No binding | No binding | No binding
